Test results published in US11857522B2, “Compositions containing tucaresol or its analogs” (BeyondSpring Pharmaceuticals, Inc., priority 2016, dated 2024).

Tested on: MC-38 tumor cells
Test: MC-38 tumor model, comparison of tucaresol and CTLA-4 antibody (Example 9)
Format: in vivo, mice
Details: FIG. 4
Protocol: The treatment with the combination of tucaresol, a PD-1 antibody, and CTLA-4 antibody was compared with the combination of PD-1 antibody and CTLA-4 antibody for their tumor inhibition effects. The tests were performed using seven to ten-week old immune competent mice that were injected subcutaneously with MC-38 tumor cells.
Three testing groups were prepared. Group A was administered with PD-1 antibody (3 mg/kg)/CTLA-4 antibody (3 mg/kg) combined treatment; Group B was administered with a tucaresol (10 mg/kg)/PD-1 antibody (3 mg/kg) CTLA-4 antibody (3 mg/kg) combined treatment; and Group C was administered with a PD-1 antibody (3 mg/kg)/CTLA-4 antibody (10 mg/kg) combined treatment. […]
Each treatment started at tumor size between 40-150 mm^3 and continued until Day 24. To determine the efficacy of each treatment, the following data were collected: mortality rate; the body weight of the mice assessed twice weekly both prior to treatments; the rate of tumor growth as determined by the tumor size measurement (twice every week); the tumor growth index; overall survival rate; the time required to double tumor size and the tumor weight at necropsy.

## O=Cc1c(O)cccc1OCc1ccc(C(=O)O)cc1 [tucaresol, 4-[(2-formyl-3-hydroxy-phenoxy)methyl]benzoic acid]
Tucaresol 10 mg/kg added to PD-1 antibody (3 mg/kg)/CTLA-4 antibody (3 mg/kg), compared with raising CTLA-4 antibody from 3 mg/kg to 10 mg/kg, until Day 24
  anti-tumor effect of the combination (MC 38 tumor growth): increased the anti-tumor effect of the combination to a greater extent than increasing the dose of the CTLA-4 antibody
Used together with immune checkpoint inhibitors such as PD-1 antibody, MC-38 tumors in mice
  inhibiting tumor growth: more effective in inhibiting tumor growth than CTLA-4 antibody
